# System: SARS-CoV-2 variant D614G
# Assay type: cell-based
substance,measurement,value
ACE2-Fc,inhibition of infection by SARS-CoV-2 variant D614G,inhibited infection
